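Method: 48-hour compound exposure of cells in 96-well plates, five concentrations, linear interpolation of endpoints. At the TGI there is no net growth.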
What was measured:
Test in all cases: NCI anticancer screen, dose series, 48 h
[1] = tested on: HOP-62 NSCLC
[2] = tested on: NCI-H23 lung
[3] = tested on: SF-268 CNS
[4] = tested on: LOX IMVI melanoma
[5] = tested on: NCI/ADR-RES ovarian
[6] = tested on: NCI-H460 lung
[7] = tested on: SK-MEL-28 melanoma
[8] = tested on: SR leukemia
[9] = tested on: OVCAR-8 ovarian
[10] = tested on: M14 melanoma
[11] = tested on: OVCAR-4 ovarian
[12] = tested on: UACC-62 melanoma
[13] = tested on: RPMI-8226 leukemia
[14] = tested on: CCRF-CEM leukemia
[15] = tested on: HCT-15 colon
[16] = tested on: HT29 colon
[17] = tested on: DU-145 prostate
[18] = tested on: A549 NSCLC
[19] = tested on: SNB-19 CNS
[20] = tested on: SNB-75 CNS
[21] = tested on: SF-539 CNS
[22] = tested on: TK-10 renal
[23] = tested on: HCC-2998 colon
[24] = tested on: SK-OV-3 ovarian
[25] = tested on: IGROV1 ovarian
[26] = tested on: UACC-257 melanoma
[27] = tested on: RXF 393 renal
[28] = tested on: NCI-H226 lung
[29] = tested on: PC-3 prostate
[30] = tested on: CAKI-1 renal
[31] = tested on: HCT-116 colon
[32] = tested on: MDA-MB-435
[33] = tested on: ACHN renal
[34] = tested on: BT-549 breast
[35] = tested on: SW-620 colon
[36] = tested on: T-47D breast
[37] = tested on: EKVX NSCLC
[38] = tested on: MDA-MB-231 breast
[39] = tested on: OVCAR-3 ovarian
[40] = tested on: 786-0 renal
[41] = tested on: COLO 205 colon
[42] = tested on: MALME-3M melanoma
[43] = tested on: KM12 colon
[44] = tested on: SN12C renal
[45] = tested on: SK-MEL-2 melanoma
[46] = tested on: OVCAR-5 ovarian
[47] = tested on: MOLT-4 leukemia
[48] = tested on: MCF7 breast
[49] = tested on: MDA-N
[50] = tested on: HS 578T breast
[51] = tested on: NCI-H522 lung
[52] = tested on: SK-MEL-5 melanoma
[53] = tested on: SF-295 CNS
[54] = tested on: K-562 leukemia
[55] = tested on: U251 CNS
[56] = tested on: HL-60(TB) leukemia
[57] = tested on: A498 renal
[58] = tested on: UO-31 renal

## C[C@@H](c1ccccc1)N1CN(C(=O)OCc2ccccc2)C(CO)C1=O (stereo partly drawn)
[1]
  TGI: > 100 µM
[2]
  TGI: > 100 µM
[3]
  TGI: > 100 µM
[4]
  TGI: > 100 µM
[5]
  TGI: > 100 µM
[6]
  TGI: > 100 µM
[7]
  TGI: > 100 µM
[8]
  TGI: > 100 µM
[9]
  TGI: > 100 µM
[10]
  TGI: > 100 µM
[11]
  TGI: > 100 µM
[12]
  TGI: > 100 µM
[13]
  TGI: > 100 µM
[14]
  TGI: > 100 µM
[15]
  TGI: > 100 µM
[16]
  TGI: > 100 µM
[17]
  TGI: > 100 µM
[18]
  TGI: > 100 µM
[19]
  TGI: > 100 µM
[20]
  TGI: > 100 µM
[21]
  TGI: > 100 µM
[22]
  TGI: > 100 µM
[23]
  TGI: > 100 µM
[24]
  TGI: > 100 µM
[25]
  TGI: > 100 µM
[26]
  TGI: > 100 µM
[27]
  TGI: > 100 µM
[28]
  TGI: > 100 µM
[29]
  TGI: > 100 µM
[30]
  TGI: > 100 µM
[31]
  TGI: > 100 µM
[32]
  TGI: > 100 µM
[33]
  TGI: > 100 µM
[34]
  TGI: > 100 µM
[35]
  TGI: > 100 µM
[36]
  TGI: > 100 µM
[37]
  TGI: > 100 µM
[38]
  TGI: > 100 µM
[39]
  TGI: > 100 µM
[40]
  TGI: > 100 µM
[41]
  TGI: > 100 µM
[42]
  TGI: > 100 µM
[43]
  TGI: > 100 µM
[44]
  TGI: > 100 µM
[45]
  TGI: > 100 µM
[46]
  TGI: > 100 µM
[47]
  TGI: > 100 µM
[48]
  TGI: > 100 µM
[49]
  TGI: > 100 µM
[50]
  TGI: > 100 µM
[51]
  TGI: > 100 µM
[52]
  TGI: > 100 µM
[53]
  TGI: > 100 µM
[54]
  TGI: > 100 µM
[55]
  TGI: > 100 µM
[56]
  TGI: > 100 µM

## CCOC(=O)c1nnsc1NC(=O)NCCCCCCn1c(=O)n(CCCCCCNC(=O)Nc2snnc2C(=O)OCC)c(=O)n(CCCCCCNC(=O)Nc2snnc2C(=O)OCC)c1=O
[1]
  TGI: 69.8 µM
[2]
  TGI: 90.4 µM
[3]
  TGI: 48.4 µM
[5]
  TGI: > 100 µM
[6]
  TGI: 44.3 µM
[8]
  TGI: > 100 µM
[9]
  TGI: > 100 µM
[10]
  TGI: > 100 µM
[11]
  TGI: > 100 µM
[12]
  TGI: 35.1 µM
[57]
  TGI: > 100 µM
[13]
  TGI: 46.4 µM
[58]
  TGI: > 100 µM
[14]
  TGI: > 100 µM
[15]
  TGI: > 100 µM
[16]
  TGI: > 100 µM
[17]
  TGI: > 100 µM
[18]
  TGI: > 100 µM
[19]
  TGI: 38.2 µM
[20]
  TGI: 83 µM
[23]
  TGI: > 100 µM
[24]
  TGI: > 100 µM
[25]
  TGI: > 100 µM
[26]
  TGI: > 100 µM
[27]
  TGI: 86.2 µM
[28]
  TGI: 47.7 µM
[29]
  TGI: > 100 µM
[30]
  TGI: > 100 µM
[31]
  TGI: > 100 µM
[32]
  TGI: > 100 µM
[33]
  TGI: > 100 µM
[34]
  TGI: > 100 µM
[35]
  TGI: > 100 µM
[36]
  TGI: > 100 µM
[37]
  TGI: > 100 µM
[38]
  TGI: 41.1 µM
[39]
  TGI: > 100 µM
[40]
  TGI: 30.3 µM
[41]
  TGI: > 100 µM
[42]
  TGI: 53.2 µM
[43]
  TGI: > 100 µM
[44]
  TGI: > 100 µM
[45]
  TGI: > 100 µM
[46]
  TGI: > 100 µM
[47]
  TGI: > 100 µM
[48]
  TGI: > 100 µM
[49]
  TGI: > 100 µM
[50]
  TGI: 50 µM
[52]
  TGI: > 100 µM
[53]
  TGI: > 100 µM
[54]
  TGI: > 100 µM
[55]
  TGI: 36.8 µM
